Assay results published in patent publication US6479435B1, “Diaryl ethers and processes for their preparation and herbicidal and desiccant compositions containing them” (ISK Americas Incorporated, priority 1997, dated 2002).

Experiments:
Format in all cases: in vivo
[1] = system: soybean (Glycine max L., var. Pella 86, SOY); assay: Pre-emerge greenhouse test, crop damage rating; parameters: key to SOY crop damage rating: 0 = no damage, 100 = complete death of all plants; settings: 14 days after application, rating scale 0-100
Outline: (§1)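 Visual 0–100 injury rating (100 = all plants dead) taken 14 days after treatment. Rates of 125–1000 g ai/ha in acetone, 187 l/ha, were sprayed onto soil one day post-sowing; pots were surface-watered to incorporate, then bottom-watered.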

[2] = system: field corn (Zea mays L., var. Dekalb 535, CORN); assay: Pre-emerge greenhouse test, crop damage rating; settings: 14 days after application, rating scale 0-100
Outline: as §1

[3] = system: upland rice (Oryza sp., var.Tebonnet, RICE); assay: Pre-emerge greenhouse test, crop damage rating; settings: 14 days after application, rating scale 0-100
Outline: as §1

[4] = system: green foxtail (Setaria viridis, SETVI); assay: Post-emerge greenhouse herbicide test, phytotoxicity rating; settings: 14 days after application, scale 0-100
Outline: (§2)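 Scores use a 0 (no damage) to 100 (complete kill) scale, taken 14 days after a foliar spray. Acetone solutions with 0.25% v/v non-ionic surfactant were applied by track sprayer at 187 l/ha and 63-1000 g ai/ha to bottom-watered 2-3 leaf plants.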

[5] = system: large crabgrass (Digitaria sanguinalis, DIGSA); assay: as above; settings: 14 days after application, scale 0-100
Outline: as §2

[6] = system: lambsquarters (Chenopodium album, CHEAL); assay: as above; settings: 14 days after application, scale 0-100
Outline: as §2

[7] = system: redroot pigweed (Amaranthus retroflexus, AMARE); assay: as above; settings: 14 days after application, scale 0-100
Outline: as §2

[8] = system: velvetleaf (Abutilon theophrasti, ABUTH); assay: as above; settings: 14 days after application, scale 0-100
Outline: as §2

[9] = system: ivyleaf morningglory (Ipomoea hederacea, IPOHE); assay: as above; settings: 14 days after application, scale 0-100
Outline: as §2

[10] = system: barnyardgrass (Echinochloa crusgalli, ECHCG); assay: as above; settings: 14 days after application, scale 0-100
Outline: as §2

[11] = system: Johnsongrass (Sorghum halepense, SORHA); assay: as above; settings: 14 days after application, scale 0-100
Outline: as §2

[12] = system: green foxtail (Setaria viridis, SETVI); assay: Pre-emerge greenhouse herbicide test, phytotoxicity rating; settings: 14 days after application, rating scale 0-100
Outline: as §1

[13] = system: large crabgrass (Digitaria sanguinalis, DIGSA); assay: as above; settings: 14 days after application, rating scale 0-100
Outline: as §1

[14] = system: common ragweed (Ambrosia artemisiifolia L., AMBEL); assay: as above; settings: 14 days after application, rating scale 0-100
Outline: as §1

[15] = system: lambsquarters (Chenopodium album, CHEAL); assay: as above; settings: 14 days after application, rating scale 0-100
Outline: as §1

[16] = system: redroot pigweed (Amaranthus retroflexus, AMARE); assay: as above; settings: 14 days after application, rating scale 0-100
Outline: as §1

[17] = system: velvetleaf (Abutilon theophrasti, ABUTH); assay: as above; settings: 14 days after application, rating scale 0-100
Outline: as §1

[18] = system: ivyleaf morningglory (Ipomoea hederacea, IPOHE); assay: as above; settings: 14 days after application, rating scale 0-100
Outline: as §1

[19] = system: sicklepod (Cassia obtusifolia, CASOB); assay: as above; settings: 14 days after application, rating scale 0-100
Outline: as §1

[20] = system: barnyardgrass (Echinochloa crusgalli, ECHCG); assay: as above; settings: 14 days after application, rating scale 0-100
Outline: as §1

[21] = system: Johnsongrass (Sorghum halepense, SORHA); assay: as above; settings: 14 days after application, rating scale 0-100
Outline: as §1

[22] = system: soybean (Glycine max L., var. Pella 86, SOY); assay: Post-emerge greenhouse test, crop damage rating; parameters: key to crop damage rating SOY: 0-100 scale: 0 = no damage, 100 = complete death of all plants; settings: 14 days after application, scale 0-100
Outline: as §2

[23] = system: field corn (Zea mays L., var. Dekalb 535, CORN); assay: Post-emerge greenhouse test, crop damage rating; settings: 14 days after application, scale 0-100
Outline: as §2

[24] = system: upland rice (Oryza sp., var.Tebonnet, RICE); assay: Post-emerge greenhouse test, crop damage rating; settings: 14 days after application, scale 0-100
Outline: as §2

[25] = system: common ragweed (Ambrosia artemisiifolia L., AMBEL); assay: Post-emerge greenhouse herbicide test, phytotoxicity rating; settings: 14 days after application, scale 0-100
Outline: as §2

`O=c1n(-c2cc(Oc3ccccn3)c(Cl)cc2F)c(=S)n2n1CCCC2` [Compound 8-17] was tested, and the “SOY crop damage rating” value ([1]; Rate 125 g al/ha) was 0, the “SOY crop damage rating” value ([1]; Rate 500 g al/ha) was 95 and the “CORN crop damage rating” value ([2]; Rate 125 g al/ha) was 10. For the same compound, the “CORN crop damage rating” value ([2]; Rate 500 g al/ha) was 30, the “RICE crop damage rating” value ([3]; Rate 125 g al/ha) was 50 and the “RICE crop damage rating” value ([3]; Rate 500 g al/ha) was 95. For the same compound, the “phytotoxicity rating SETVI” value ([4]; rate 63 g ai/ha) was 50, the “phytotoxicity rating SETVI” value ([4]; rate 500 g ai/ha) was 90 and the “phytotoxicity rating DIGSA” value ([5]; rate 63 g ai/ha) was 50. The “phytotoxicity rating DIGSA” value ([5]; rate 500 g ai/ha) was 90, the “phytotoxicity rating CHEAL” value ([6]; rate 63 g ai/ha) was 99 and the “phytotoxicity rating CHEAL” value ([6]; rate 500 g ai/ha) was 100. The “phytotoxicity rating AMARE” value ([7]; rate 63 g ai/ha) was 100, the “phytotoxicity rating AMARE” value ([7]; rate 500 g ai/ha) was 100 and the “phytotoxicity rating ABUTH” value ([8]; rate 63 g ai/ha) was 100. For the same compound, the “phytotoxicity rating ABUTH” value ([8]; rate 500 g ai/ha) was 100, the “phytotoxicity rating IPOHE” value ([9]; rate 63 g ai/ha) was 100 and the “phytotoxicity rating IPOHE” value ([9]; rate 500 g ai/ha) was 100. For the same compound, the “phytotoxicity rating ECHCG” value ([10]; rate 63 g ai/ha) was 90, the “phytotoxicity rating ECHCG” value ([10]; rate 500 g ai/ha) was 100 and the “phytotoxicity rating SORHA” value ([11]; rate 63 g ai/ha) was 50. The “phytotoxicity rating SORHA” value ([11]; rate 500 g ai/ha) was 100, the SETVI phytotoxicity rating ([12]; Rate 125 g al/ha) was 100 and the SETVI phytotoxicity rating ([12]; Rate 500 g al/ha) was 100. It also gave a DIGSA phytotoxicity rating ([13]; Rate 125 g al/ha) of 100, a DIGSA phytotoxicity rating ([13]; Rate 500 g al/ha) of 100 and an AMBEL phytotoxicity rating ([14]; Rate 125 g al/ha) of 100. For the same compound, the AMBEL phytotoxicity rating ([14]; Rate 500 g al/ha) was 100, the CHEAL phytotoxicity rating ([15]; Rate 125 g al/ha) was 100 and the CHEAL phytotoxicity rating ([15]; Rate 500 g al/ha) was 100. The AMARE phytotoxicity rating ([16]; Rate 125 g al/ha) was 100, the AMARE phytotoxicity rating ([16]; Rate 500 g al/ha) was 100 and the ABUTH phytotoxicity rating ([17]; Rate 125 g al/ha) was 100. For the same compound, the ABUTH phytotoxicity rating ([17]; Rate 500 g al/ha) was 100, the IPOHE phytotoxicity rating ([18]; Rate 125 g al/ha) was 80 and the IPOHE phytotoxicity rating ([18]; Rate 500 g al/ha) was 99. For the same compound, the CASOB phytotoxicity rating ([19]; Rate 125 g al/ha) was 100, the CASOB phytotoxicity rating ([19]; Rate 500 g al/ha) was 80 and the ECHCG phytotoxicity rating ([20]; Rate 125 g al/ha) was 85. The ECHCG phytotoxicity rating ([20]; Rate 500 g al/ha) was 100, the SORHA phytotoxicity rating ([21]; Rate 125 g al/ha) was 50 and the SORHA phytotoxicity rating ([21]; Rate 500 g al/ha) was 100. For the same compound, the “crop damage rating SOY” value ([22]; rate 63 g ai/ha) was 90, the “crop damage rating SOY” value ([22]; rate 500 g ai/ha) was 100 and the “crop damage rating CORN” value ([23]; rate 63 g ai/ha) was 20. The “crop damage rating CORN” value ([23]; rate 500 g ai/ha) was 10, the “crop damage rating RICE” value ([24]; rate 63 g ai/ha) was 40 and the “crop damage rating RICE” value ([24]; rate 500 g ai/ha) was 90. The “phytotoxicity rating AMBEL” value ([25]; rate 63 g ai/ha) was 60 and the “phytotoxicity rating AMBEL” value ([25]; rate 500 g ai/ha) was 100.
